Test results: patent US10316057B2, “Tandem facial amphiphiles” (WISCONSIN ALUMNI RESEARCH FOUNDATION, priority 2011, dated 2019)
Counter-ions that a name gives are not always drawn.

Key:
[1] = Water solubility and hydrogel formation; format: physicochemical
Method: (§1) TFA-0 forms a hydrogel at concentrations >0.4 wt %, and this compound was not studied further. The other three TFAs are soluble to 5-10 wt % in aqueous media. Critical micelle concentrations (CMC) were determined by monitoring solubilization of a hydrophobic fluorescent dye, […] (Chattopadhyay et al., Anal. Biochem. 1984, 139, 408-412), and the hydrodynamic radii (Rh) of the micelles were determined via dynamic light scattering (DLS). Table 1 compares the data for TFAs with those for DDM, a conventional detergent that is very widely used for MP applications; DDM and the TFAs share maltose as their hydrophilic moieties. CMC values of the three TFAs are smaller than that of DDM, whether CMC is measured in units of mM or wt %.
Several amphiphiles (TFA 1a-10a) were prepared and evaluated for their water solubility and critical micelle concentration (CMC). […] Examples of these TFAs include compounds of Formula VI: […]
These TFAs can be used to prepare hydrogels, which can be used tissue engineering or drug delivery applications. Examples of the generally water-insoluble TFAs include compounds of Formula XX: […]
(§2) Analysis of these TFAs for their CMC values provided the data in Table 3.

LHI-RC superassembly = system: T1, LHI-RC superassembly; assay: Stabilization assay for R. capsulatus superassembly (A875/A680); parameters: species or system Rhodobacter capsulatus; conditions: room temperature, 20 days, CMC+0.04 wt %, relative to DDM
T1 construct: The LHI-RC superassembly was extracted from native membranes with 1.0 wt % DDM; made in house; host or cells: Rhodobacter capsulatus U43[pUHTM86Bgl]; (lacks LHII), photosynthetic membranes
Description: The promising results with bR stabilization led to investigating a more challenging system, the photosynthetic superassembly formed by the light harvesting I (LHI) and reaction center (RC) complexes from Rhodobacter capsulatus (Laible et al., Biochemistry 2003, 42, 1718-1730). This superassembly contains 30-40 protein molecules (five different components), and maintenance of native quaternary structure can be assessed via spectrophotometry. The LHI-RC superassembly was extracted from native membranes with 1.0 wt % DDM and purified with DDM at its CMC (0.009 wt %). […]
Resin-retaining spin columns (e.g., emptied His SpinTrap™ columns; GE Healthcare) were inserted into a 2 mL microcentrifuge tube and the samples were then loaded onto the column. […] The protein was collected by eluting with two 0.25 mL elution buffer aliquots (this buffer was identical to binding buffer with the addition to 1 M of imidazole; the pH of each solution was checked and readjusted to pH=7.8). […]
UV-Vis spectra of these solutions were measured in regular intervals. FIG. 9 illustrates the time course of stability of R. capsulatus superassembly, evaluated at room temperature. […] Absorbance ratio (A875/A680) was followed for the stability evaluation of the membrane protein. […] FIG. 10 illustrates the absorbance spectrum of R. capsulatus superassembly in TFA-1 (a,c) and DDM (b,d) at room temperature (˜23° C.). […]

[2] = Hydrodynamic radii of micelles by dynamic light scattering (DLS); format: physicochemical; conditions: 0.5 wt % amphiphile in water, 25° C.; mean ± SD, n = 3
Method: as §1
Each TFA and DDM was dissolved in distilled, deionized (DI) water to obtain 1 mL of a solution containing 0.5 wt % amphiphile. Each solution was filtered through a 0.02 μm filter for DLS measurements. A 100-mW, 532-nm laser (Compass 315M-100, Coherent, Santa Clara, Calif.) illuminated a temperature-controlled glass cell at 25° C. that was filled with a refractive-index matching fluid (decahydronaphthalene, Fisher Scientific, Pittsburgh, Pa.). The scattered light was collected at an angle of 90° for about 30 minutes. Rh values were determined using the integrated dynamics software that analyzes the time scale of the scattered light intensity fluctuations by an autocorrelation function. The autocorrelation functions (ACFs) were obtained using a BI-9000AT digital autocorrelator (Brookhaven Instruments, Holtsville, N.Y.). Measurements were repeated three times.

[3] = system: leucine transporter (LeuT WT); assay: LeuT functionality assay ([3H]-Leu binding by scintillation proximity assay); parameters: species or system Aquifex aeolicus; conditions: higher amphiphile concentration, CMC+0.2 wt %, room temperature
Description: The wild type of bacterial leucine transporter (LeuT WT) was examined because the functional state of this membrane protein is readily assessed by using a scintillation proximity assay (SPA) (Quick et al., Proc. Natl. Acad. Sci. USA 2007, 104, 3603-3608) to monitor binding of radiolabelled leucine. LeuT was initially extracted with DDM and then diluted with amphiphile-containing solutions to generate final TFA concentrations of 0.04 wt % or 0.2 wt % (residual DDM=0.005 wt %). Control samples had 0.05 wt % or 0.2 wt % DDM (overall, the final concentrations were CMC+0.04 wt % or CMC+0.2 wt %).
The wild type of the leucine transporter (LeuT WT) from Aquifex aeolicus was expressed in Escherichia coli essentially as described by Deckert et al. (Nature 392, 353-358 (1998)). The pET16b-LeuT WT-8His plasmid was kindly provided by Dr. Eric Gouaux, Vollum Institute, Portland Oreg. LeuT WT was extracted from isolated bacterial membranes solubilized with 1% DDM, bound to Ni^2+-affinity Chelating Sepharose Fast Flow resin (GE Healthcare, USA), and eluted in buffer consisted of 20 mM Tris-HCl (pH 8.0), 1 mM NaCl, 199 mM KCl, 0.05% DDM and 300 mM imidazole. […] After incubation at room temperature, at the indicated time points, samples were centrifuged and the protein concentration was determined by absorbance measurements at 280 nm. Concomitantly, [^3H]-Leu binding was determined using scintillation proximity assay (SPA) (Quick and Javitch, Proc. Natl. Acad. Sci. USA 104, 3603-3608 (2007)), with the reaction mixture consisted of 5 μL from the respective samples, 33.3 nM [^3H]-Leu (PerkinElmer, USA) and copper chelate (His-Tag) YSi beads (GE Healthcare). […] Normalized results are expressed as mean±SEM (n=2), as illustrated in FIG. 11 (long-term solubility of LeuT WT incubated in the presence of TFA-1, TFA-3, and DDM at (a) CMC+0.04 wt % or (b) CMC+0.2 wt % at room temperature).

[4] = Critical micelle concentration by solubilization of a hydrophobic fluorescent dye; format: physicochemical; conditions: mean ± SD, n = 3
Description: The “Critical Micelle Concentration” (CMC) refers to the concentration of a detergent (e.g., an amphiphile as described herein) in an aqueous solution at which the detergent molecules self-assemble into micelles. Below the CMC, detergents are mostly monomeric; above the CMC, micelle concentration increases linearly with detergent concentration. The CMC is dependent upon many factors and is detergent-specific. The CMC of a detergent can be determined experimentally by measuring the solubilization of a water-insoluble dye or fluorophore while varying the concentration of detergent. A CMC may also be determined by measuring the diminution of the surface tension of an aqueous solution as a function of detergent concentration (CMCs determined by either method correlate with each other). The CMC is determined by extrapolating the plot of solubilization vs. concentration (or surface tension vs. concentration) in the two linear regions above and below the CMC. Where the two lines intersect is the CMC. The CMC can also be determined by the method of Nugebauer, J. M. (1990), Methods in Enzymology, 182:239-253.
as §1, §2

## C[C@H](CCC(=O)NCCCNC(=O)CC[C@@H](C)[C@H]1CC[C@H]2[C@@H]3CC[C@@H]4C[C@H](O[C@@H]5O[C@H](CO)[C@@H](O[C@H]6O[C@H](CO)[C@@H](O)[C@H](O)[C@H]6O)[C@H](O)[C@H]5O)CC[C@]4(C)[C@H]3C[C@H](O[C@@H]3O[C@H](CO)[C@@H](O[C@H]4O[C@H](CO)[C@@H](O)[C@H](O)[C@H]4O)[C@H](O)[C@H]3O)[C@]12C)[C@H]1CC[C@H]2[C@@H]3CC[C@@H]4C[C@H](O[C@@H]5O[C@H](CO)[C@@H](O[C@H]6O[C@H](CO)[C@@H](O)[C@H](O)[C@H]6O)[C@H](O)[C@H]5O)CC[C@]4(C)[C@H]3C[C@H](O[C@@H]3O[C@H](CO)[C@@H](O[C@H]4O[C@H](CO)[C@@H](O)[C@H](O)[C@H]4O)[C@H](O)[C@H]3O)[C@]12C [TFA-0]
[1]; in water
  concentration at which a hydrogel forms: > 0.4 wt %

## CCCCCCCCO[C@@H]1O[C@H](CO)[C@@H](O)[C@H](O)[C@H]1O [octyl-glucoside]
LHI-RC superassembly
  stability of LHI-RC superassembly: rapid degradation of the superassembly

## CC(CCC(=O)NCc1ccc(CNC(=O)CCC(C)C2CCC3C4CCC5CC(OC6OC(CO)C(OC7OC(CO)C(O)C(O)C7O)C(O)C6O)CCC5(C)C4CC(OC4OC(CO)C(OC5OC(CO)C(O)C(O)C5O)C(O)C4O)C23C)cc1)C1CCC2C3CCC4CC(OC5OC(CO)C(OC6OC(CO)C(O)C(O)C6O)C(O)C5O)CCC4(C)C3CC(OC3OC(CO)C(OC4OC(CO)C(O)C(O)C4O)C(O)C3O)C12C (centres unmarked) [TFA-6a]
[1]; Example 4, under the conditions evaluated
  water solubility: insoluble

## CCCCCCCCCCCC[N+](C)(C)[O-] [lauryldimethylamine oxide]
LHI-RC superassembly
  stability of LHI-RC superassembly: rapid degradation of the superassembly

## CCCCN(CCCN(CCCC)C(=O)CC[C@@H](C)[C@H]1CC[C@H]2[C@@H]3CC[C@@H]4C[C@H](O[C@@H]5O[C@H](CO)[C@@H](O[C@H]6O[C@H](CO)[C@@H](O)[C@H](O)[C@H]6O)[C@H](O)[C@H]5O)CC[C@]4(C)[C@H]3C[C@H](O[C@@H]3O[C@H](CO)[C@@H](O[C@H]4O[C@H](CO)[C@@H](O)[C@H](O)[C@H]4O)[C@H](O)[C@H]3O)[C@]12C)C(=O)CC[C@@H](C)[C@H]1CC[C@H]2[C@@H]3CC[C@@H]4C[C@H](O[C@@H]5O[C@H](CO)[C@@H](O[C@H]6O[C@H](CO)[C@@H](O)[C@H](O)[C@H]6O)[C@H](O)[C@H]5O)CC[C@]4(C)[C@H]3C[C@H](O[C@@H]3O[C@H](CO)[C@@H](O[C@H]4O[C@H](CO)[C@@H](O)[C@H](O)[C@H]4O)[C@H](O)[C@H]3O)[C@]12C [TFA-3]
[2]
  Rh (nm), hydrodynamic radius of micelles measured by dynamic light scattering: 3.3 ± 0.12 nm
[3]
  maintaining LeuT WT function over 12 days: matched DDM at the lower concentration
[4]
  CMC: 7 ± 2.3 µM
  CMC (wt %): 0.0016 ± 0.00051 wt %
